This note sets out measurements from patent publication US9187458B2, “Cyanoquinoline derivatives” (Tianjin Hemay Bio-Tech Co., LTD., priority 2010, dated 2015).

In one experiment the target is T1, EGFR-TK (Homo sapiens, UniProt P00533).
T1 construct: EGFR-TK: intracellular epidermal growth factor receptor phosphorylase
Nature of the experiment: Inhibition Test on EGFR-TK (ELISA, PGT substrate). Format: biochemical. The note with it: 20 min at room temperature, read-out: Inhibition Activity (EC50) on EGFR-TK phosphorylation. On the procedure: Inhibition Test on EGFR-TK
1. 2 mg/ml of PGT was diluted with PBS to 0.2 mg/ml. The resulting solution was added into elisa plate by 50 μl per well. The plate was placed in a refrigerator at 4° C. and coated overnight.
2. The coating solution was discarded to stop coating. The plate was washed three times with PBS, and then beaten to dryness.
3. The elisa plate was placed in a refrigerator at 4° C., drained out and stood for 2h.
4. The mother liquid of aqueous solution of each compound was diluted with double distilled water to four folds, i.e. a desirable concentration. Then, the compound was diluted and added in the corresponding elisa well by 25 μl/well.
5. […] of ATP solution was diluted with double distilled water to 50 folds and then sufficiently mixed. The resulting solution was separately added in each elisa well by 25 μl per well (except for the negative control).
6. EGFR kinase was diluted with 2×TKB to 800 folds. The solution was added in elisa well with 50 μl per well. Then, the enzyme reaction began. The elisa plate was immediately placed on a micro-oscillator and shaked to react for 20 min at the room temperature.
7. 2% of SDS was added in the elisa well to stop the reaction by adding 100 μl of SDS into each well. The solution was sufficiently mixed on the micro-oscillator to sufficiently mix for about 5 min.
8. The reaction solution was sucked out. The plate was washed four times with PBST. After the plate was beaten to dryness, 0.25 μg/ml of mice anti-phosphorylation tyrosine-HRP antibody which was diluted with blocking solution (3% solution of BSA in PBST) was added in the plate by 100 μl per well. The mixture was reacted for 30 min at the room temperature.
9. The antibody reaction solution was sucked out. The plate was washed four times with PBST. After the plate was beated to dryness, TMB peroxidase substrate was added to the plate by 100 μl/well. The mixture reacted in the dark for 15 min at the room temperature.
10. 100 μl of 2N H2SO4 was added in the plate to stop the chromogenic reaction. After the bubbles were cleansed, OD values were determined in ELIASA at 450 nm.
11. Formula for calculating inhibition percentage: […]
(An ELISA detects its analyte on a solid surface through an enzyme-linked reagent.)

The next experiment relates to MDA-MB-453 cells. Put plainly: MDA-MB-453 Cell Growth Inhibition Test (SRB Assay). Format: cell-based. The note with it: Homo sapiens, 72 h incubation. The method, then:
MDA-MB-453 Cell Growth Inhibition Test (SRB Assay)
Cell strains: MDA-MB-453 (human breast cancer cell strains);
SRB: 0.4% (w/v) working solution was formulated with 1% glacial acetic acid, reserved at 4° C.; antitumor compounds; DMSO
Culture medium: 90% L15+10% FBS;
(§1) 1. A plate (10 cm) of cells in logarithmic growth phase normally cultured was collected;
2. The culture solution was sucked out. The plate was washed with 5 mL of PBS 1-2 times;
3. 1.5 mL of 0.25% pancreatin was added to the plate to infiltrate the cells;
4. The pancreatin was sucked out. The culture plate was placed in an incubator. Digestion was carried out for about 3 min at 37° C.;
5. 4 mL of complete culture solution was added to the culture plate to stop the digestion. The cells were carefully scoured with micropipette (1 ml) to give a uniform single cell suspension. The suspension was implanted into a 96-well cell culture plate by 7000 cells/100 μl per well. The culture plate was incubated overnight under 5% CO2 at 37° C. In day 2, 100 μl of culture solution comprising a compound was added in each well, and further incubated for 72 h under 5% CO2 at 37° C.;
6. The culture solution was sucked out. 100 uL of TCA fixed cells which were diluted to 10% were added to each well. The plate was kept in a refrigerator for 1 h at 4° C.
7. TCA stationary liquid was sucked out. […]
13. OD values were determined at […]. […]

For a further experiment, the system named is NCI-H358 cells. Nature of the experiment: NCI-H358 Cell Growth Inhibition Test (MTT Assay). The class given is cell-based. To be noted: Homo sapiens, 72 h incubation. On the procedure: NCI-H358 Cell Growth Inhibition Test (MTT Assay)
Cell strains: NCI-H358 (human non-small cell lung cancer cell strains);
as §1
2. The culture solution was sucked out. The plate was washed with 5 ml of PBS 1-2 times;
3. PBS was sucked out. 1.5 ml of 0.25% pancreatin was added to infiltrate the cells for 1 min;
4. The culture plate was placed in an incubator. Digestion was carried out for about 5 min at 37° C.;
5. 3 ml of complete culture solution was added to the culture plate to stop the digestion. Tthe cells were carefully scoured with micropipette (1 ml) to give a uniform cell suspension. The suspension was implanted into a 96-well cell culture plate by 10000 cells/100 […] per well. The culture plate was incubated overnight under 5% CO2 at 37° C. In day 2, 100 μA of culture solution comprising a compound was added in each well, and further incubated for 72 h under 5% CO2 at 37° C.
6. The culture solution was sucked out;
7. 100 μA of serum-free culture solution containing 0.5 mg/ml MTT was added in each well, and incubated for 3 h;
8. The culture solution was carefully sucked out;
9. 100 μA of DMSO was added in each well and vibrated to dissolve;
10. OD values were determined at 490 nM.
1. Calculation of Relative Inhibition Ratio The inhibition ratio of a compound on cell growth=(PC−n)/(PC−NC)×100%
IC50: Concentration of a compound where inhibition ratio was 50%. IC50 values were fitted with Origin7.5.

SMILES strings stand for the structures.

T1 sequence (P00533 669-1210 limits assumed): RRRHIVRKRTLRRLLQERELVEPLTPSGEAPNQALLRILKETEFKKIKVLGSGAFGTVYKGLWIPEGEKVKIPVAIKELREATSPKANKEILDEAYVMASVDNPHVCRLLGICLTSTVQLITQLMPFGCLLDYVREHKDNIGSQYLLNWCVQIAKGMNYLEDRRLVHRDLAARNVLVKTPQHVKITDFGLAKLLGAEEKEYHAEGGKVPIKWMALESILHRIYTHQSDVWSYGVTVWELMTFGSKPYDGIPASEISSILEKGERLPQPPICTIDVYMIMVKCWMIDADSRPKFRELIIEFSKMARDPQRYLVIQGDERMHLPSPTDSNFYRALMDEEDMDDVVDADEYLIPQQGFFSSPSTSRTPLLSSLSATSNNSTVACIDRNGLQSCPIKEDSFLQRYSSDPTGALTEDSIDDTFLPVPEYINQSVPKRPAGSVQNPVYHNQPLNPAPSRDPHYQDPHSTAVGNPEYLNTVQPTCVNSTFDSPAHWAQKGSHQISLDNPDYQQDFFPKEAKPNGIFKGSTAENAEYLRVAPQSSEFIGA

Take `CN(C)C/C=C/C(=O)Nc1cc2c(Nc3ccc(F)c(Cl)c3)c(C#N)cnc2cc1OC1CCOC1` (centres unmarked) [Example 4, (E)-N-(4-(3-CHLORO-4-FLUOROPHENYLAMINO)-3-CYANO-7-(TETRAHYDROFURAN-3-YL-OXY)QUINOLIN-6-YL)-4-(DIMETHYLAMINO)-BUT-2-ENAMIDE]: the EC50 (as a rule, the concentration that produces a half-maximal response) on EGFR-TK is 42 nM. Take `C#Cc1cccc(Nc2c(C#N)cnc3cc(OC4CCOC4)c(NC(=O)/C=C/CN(C)C)cc23)c1` (centres unmarked) [Example 5, (E)-N-(3-CYANO-4-(3-ETHYNYLPHENYLAMINO)-7-(TETRAHYDROFURAN-3-YL-OXY)QUINOLIN-6-YL)-4-(DIMETHYLAMINO)-BUT-2-ENAMIDE]: the concentration for a half-maximal effect (EC50) on EGFR-TK stood at 44 nM. The half-maximal inhibitory concentration (IC50) (as a rule, the midpoint of a concentration-inhibition curve) in the experiment on MDA-MB-453 cells was 505 nM. As for `CN(C)C/C=C/C(=O)Nc1cc2c(Nc3ccc(OCc4cccc(F)c4)c(Cl)c3)c(C#N)cnc2cc1OC1CCOC1` (centres unmarked) [Example 9, (E)-N-(4-(4-(3-FLUOROBENZYLOXY)-3-CHLOROPHENYLAMINO)-3-CYANO-7-(TETRAHYDROFURAN-3-YL-OXY)QUINOLIN-6-YL)-4-(DIMETHYLAMINO)-BUT-2-ENAMIDE], the EC50 on EGFR-TK was determined as 135 nM. In the case of `CN(C)C/C=C/C(=O)Nc1cc2c(Nc3ccc(OCc4ccccn4)c(Cl)c3)c(C#N)cnc2cc1OC1CCOC1` (centres unmarked) [Example 21, (E)-N-(4-(3-CHLORO-4-(PYRIDIN-2-YL-METHOXY)PHENYLAMINO)-3-CYANO-7-(TETRAHYDROFURAN-3-YL-OXY)QUINOLIN-6-YL)-4-(DIMETHYLAMINO)-BUT-2-ENAMIDE], the EC50 on EGFR-TK stood at 154 nM. `CN(C)C/C=C/C(=O)Nc1cc2c(Nc3ccc(OCc4ccccn4)c(Cl)c3)c(C#N)cnc2cc1O[C@H]1CCOC1` [Example 138, (S,E)-N-(4-(3-CHLORO-4-(PYRIDIN-2-YL-METHOXY)PHENYLAMINO)-3-CYANO-7-(TETRAHYDROFURAN-3-YL-OXY)QUINOLIN-6-YL)-4-(DIMETHYLAMINO)-BUT-2-ENAMIDE] yielded a half-inhibitory concentration (IC50) in the experiment with NCI-H358 cells of 54 nM. In addition, the EC50 on EGFR-TK turned out to be 110 nM.

In the experiment with NCI-H358 cells, `CC(C)(C)NC/C=C/C(=O)Nc1cc2c(Nc3ccc(OCc4ccccn4)c(Cl)c3)c(C#N)cnc2cc1O[C@H]1CCOC1` [Example 153, (S,E)-N-(4-(3-CHLORO-4-(PYRIDIN-2-YL-METHOXY)PHENYLAMINO)-3-CYANO-7-(TETRAHYDROFURAN-3-YL-OXY)QUINOLIN-6-YL)-4-(TERT-BUTYLAMINO)-BUT-2-ENAMIDE] registered an IC50 of 78 nM.
